Source: ChEMBL document CHEMBL1201862, “PubChem BioAssay data set” (2004)
Activity calls are given as the source filed them.

Columns and labels:
[1] = tested on: INS1; assay: INS-1E survival protection against cytokine death – cell-based, luminescence, retest, dose response (AID 449756); assay type: functional; conditions: Rattus norvegicus;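 note: cell death triggered by IL-1 beta plus TNF-alpha plus IFN-gamma mixture; protective hits raise ATP signal compared with cytokine alone wells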
[2] = non-specific 3'UTR reporter inhibition in Clone20-Shn3RL – cell-based, Renilla luciferase, cherry-picked, counter-screen for Shn3 inhibitor project, dose response (AID 624133); assay type: functional
[3] = Trypanosoma cruzi growth suppression in host cells – NIH3T3 host cells, beta-gal luminescence, confirmation (AID 2044); assay type: functional, cell-based;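 note: intracellular parasites grown in NIH/3T3 mouse fibroblasts as host cells; luminescent beta-galactosidase reporter signal from transgenic T. cruzi replicating inside host cells; inhibitors lower the luminescence signal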
[4] = NIH3T3 cell viability loss – ATP luminescence, mouse fibroblasts, counter-screen, dose response (AID 2010); assay type: functional, cell-based;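 note: cells exposed to compound for about 90 hours before reading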
[5] = THP-1 cell cytotoxicity, dose response, cytotoxicity control for non-replicating M. tuberculosis project (AID 489025); assay type: functional
[6] = biological target: T1, Replicative DNA helicase DnaB (Mycobacterium tuberculosis, UniProt P9WMR3); assay: DnaB intein splicing inhibitors, dose response, biochemical, cell-free fluorescence (AID 449749); assay type: functional
T1 sequence (P9WMR3 whole entry): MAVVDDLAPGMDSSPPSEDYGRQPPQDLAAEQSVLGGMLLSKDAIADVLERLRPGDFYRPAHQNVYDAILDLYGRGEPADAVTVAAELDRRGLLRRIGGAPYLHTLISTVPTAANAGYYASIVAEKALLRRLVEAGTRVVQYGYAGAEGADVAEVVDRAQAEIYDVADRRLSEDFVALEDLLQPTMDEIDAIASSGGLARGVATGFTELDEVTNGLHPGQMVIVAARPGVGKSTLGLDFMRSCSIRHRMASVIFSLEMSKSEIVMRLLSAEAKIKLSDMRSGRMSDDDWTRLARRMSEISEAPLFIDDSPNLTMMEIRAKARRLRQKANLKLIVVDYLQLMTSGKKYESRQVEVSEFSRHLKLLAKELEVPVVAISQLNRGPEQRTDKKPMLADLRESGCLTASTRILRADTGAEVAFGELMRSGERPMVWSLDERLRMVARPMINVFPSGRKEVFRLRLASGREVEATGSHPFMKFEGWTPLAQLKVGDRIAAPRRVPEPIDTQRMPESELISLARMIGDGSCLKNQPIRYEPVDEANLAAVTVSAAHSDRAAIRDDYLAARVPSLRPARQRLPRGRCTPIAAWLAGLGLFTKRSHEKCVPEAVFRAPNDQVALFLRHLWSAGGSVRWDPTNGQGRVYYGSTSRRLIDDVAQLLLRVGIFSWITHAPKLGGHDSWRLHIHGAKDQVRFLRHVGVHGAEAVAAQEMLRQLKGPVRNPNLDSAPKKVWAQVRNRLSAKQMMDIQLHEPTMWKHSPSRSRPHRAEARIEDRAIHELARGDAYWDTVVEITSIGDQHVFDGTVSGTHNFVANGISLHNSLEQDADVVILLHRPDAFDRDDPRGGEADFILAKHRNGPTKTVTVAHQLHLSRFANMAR

[7] = biological target: T2, Protein RecA (Mycobacterium tuberculosis, UniProt P9WHJ3); assay: Fluorescence Cell-Free Homogeneous Dose Retest to Identify Inhibitors of RecA-Intein Splicing Activity. [Related pubchem assays (depositor defined):AID2097, AID2223, AID489010, AID492950]; assay type: functional
T2 sequence (P9WHJ3 whole entry): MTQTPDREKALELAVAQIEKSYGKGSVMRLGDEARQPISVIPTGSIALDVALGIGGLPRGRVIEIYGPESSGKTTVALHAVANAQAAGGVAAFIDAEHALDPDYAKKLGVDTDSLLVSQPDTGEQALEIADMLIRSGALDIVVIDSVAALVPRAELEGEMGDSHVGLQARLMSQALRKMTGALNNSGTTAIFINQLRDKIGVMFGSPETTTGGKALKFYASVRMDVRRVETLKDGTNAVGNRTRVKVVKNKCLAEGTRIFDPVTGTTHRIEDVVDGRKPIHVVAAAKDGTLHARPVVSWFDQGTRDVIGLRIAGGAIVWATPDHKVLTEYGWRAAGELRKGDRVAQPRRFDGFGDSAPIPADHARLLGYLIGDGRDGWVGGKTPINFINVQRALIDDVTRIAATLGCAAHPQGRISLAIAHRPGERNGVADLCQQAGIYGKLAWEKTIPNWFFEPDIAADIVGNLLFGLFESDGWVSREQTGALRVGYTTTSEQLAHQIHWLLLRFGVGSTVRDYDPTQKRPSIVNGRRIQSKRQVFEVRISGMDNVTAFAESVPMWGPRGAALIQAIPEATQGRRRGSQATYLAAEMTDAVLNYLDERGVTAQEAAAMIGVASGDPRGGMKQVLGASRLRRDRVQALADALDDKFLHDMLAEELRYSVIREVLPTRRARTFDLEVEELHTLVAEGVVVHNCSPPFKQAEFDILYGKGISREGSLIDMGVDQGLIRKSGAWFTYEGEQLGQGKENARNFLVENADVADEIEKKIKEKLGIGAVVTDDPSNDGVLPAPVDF

Compound | AC50 [1] | AC50 [2] | EC50 [3] | EC50 [4] | CC50 [5] | AC50 [6] | EC50 [7]
O=C(CC(O)(C(F)(F)F)C(F)(F)F)Nc1ccc(Cl)c(Cl)c1 | 2440 nM (active) | 5670 nM (active) |  |  |  |  | 
O=C(CNc1cccc2ccccc12)N/N=C/c1ccc([N+](=O)[O-])o1 | 5580 nM (active) |  | < 100 nM (active) | > 60000 nM (not active) | 16800 nM (active) |  | 
O=C(O)CSc1cc(NS(=O)(=O)c2ccc(Br)cc2)c2ccccc2c1O |  |  |  |  |  | 883 nM (active) | 244 nM (active)
Cc1ccc(NC(=O)C2=C(c3ccccc3)S(=O)(=O)CCS2(=O)=O)cc1 | 6540 nM (active) | 4490 nM (active) | 1970 nM (active) | 2480 nM (active) | 19400 nM (active) | 2180 nM (active) | 1010 nM (active)
